Data published in patent US20220119354A1, “DIAMINO-SUBSTITUTED PYRIDINES AND PYRIMIDINES AS HERBICIDES” (FMC Corporation, priority 2019, published 2022).

What was measured:
Format in all cases: in vivo
[1] = test system: foxtail, giant (Setaria faberii); assay: Test A postemergence, giant foxtail; conditions: 0 to 100 scale
Procedure, shortened: (§1)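 Greenhouse test; plants at one- to two-leaf stage (2–10 cm) sprayed postemergence with compound in non-phytotoxic solvent/surfactant mix, or soil sprayed preemergence after seeding in loam–sand blend. Injury rated visually versus untreated controls after about 10 d, 0 (no effect) to 100 (complete control).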

[2] = test system: foxtail, giant (Setaria faberii); assay: Test A preemergence, giant foxtail; conditions: 0 to 100 scale
Procedure, shortened: as §1

corn (Zea mays) = assay: Test A postemergence, corn; conditions: 0 to 100 scale
Procedure, shortened: as §1

[3] = test system: galium (catchweed bedstraw, Galium aparine); assay: Test A postemergence, galium; conditions: 0 to 100 scale
Procedure, shortened: as §1

[4] = test system: barnyardgrass (Echinochloa crus-galli); assay: Test B flooded paddy test, barnyardgrass; conditions: Flood, 250 g ai/ha, applied to paddy water, 2-leaf stage, visual evaluation after 13 to 15 d
Procedure, shortened: (§2)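 Each response is a visual 0–100 rating made against untreated controls, where 0 is no effect and 100 is complete control; a dash marks no result. Compound was dosed into 3 cm paddy water over 2-leaf plants, assessed after 13 to 15 d.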

[5] = test system: pigweed (Amaranthus retroflexus); assay: Test A postemergence, pigweed; conditions: 0 to 100 scale
Procedure, shortened: as §1

[6] = test system: ragweed (common ragweed, Ambrosia elatior); assay: Test A preemergence, ragweed; conditions: 0 to 100 scale
Procedure, shortened: as §1

[7] = test system: barnyardgrass (Echinochloa crus-galli); assay: Test A preemergence, barnyardgrass; conditions: 0 to 100 scale
Procedure, shortened: as §1

[8] = test system: ryegrass, Italian (Lolium multiflorum); assay: Test A postemergence, Italian ryegrass; conditions: 0 to 100 scale
Procedure, shortened: as §1

rice (Oryza sativa) = assay: Test B flooded paddy test, rice; conditions: Flood, 250 g ai/ha, applied to paddy water, 2-leaf stage, visual evaluation after 13 to 15 d
Procedure, shortened: as §2

[9] = test system: ragweed (common ragweed, Ambrosia elatior); assay: Test A postemergence, ragweed; conditions: 0 to 100 scale
Procedure, shortened: as §1

[10] = test system: barnyardgrass (Echinochloa crus-galli); assay: Test A postemergence, barnyardgrass; conditions: 0 to 100 scale
Procedure, shortened: as §1

[11] = test system: ducksalad (Heteranthera limosa); assay: Test B flooded paddy test, ducksalad; conditions: Flood, 250 g ai/ha, applied to paddy water, 2-leaf stage, visual evaluation after 13 to 15 d
Procedure, shortened: as §2

[12] = test system: sedge, umbrella (small-flower umbrella sedge, Cyperus difformis); assay: Test B flooded paddy test, umbrella sedge; conditions: Flood, 250 g ai/ha, applied to paddy water, 2-leaf stage, visual evaluation after 13 to 15 d
Procedure, shortened: as §2

[13] = test system: ryegrass, Italian (Lolium multiflorum); assay: Test A preemergence, Italian ryegrass; conditions: 0 to 100 scale
Procedure, shortened: as §1

[14] = test system: pigweed (Amaranthus retroflexus); assay: Test A preemergence, pigweed; conditions: 0 to 100 scale
Procedure, shortened: as §1

[15] = test system: wheat (Triticum aestivum); assay: Test A postemergence, wheat; conditions: 0 to 100 scale
Procedure, shortened: as §1

[16] = test system: blackgrass (Alopecurus myosuroides); assay: Test A postemergence, blackgrass; conditions: 0 to 100 scale
Procedure, shortened: as §1

kochia (Kochia scoparia) [17] = assay: Test A postemergence, kochia; conditions: 0 to 100 scale
Procedure, shortened: as §1

kochia (Kochia scoparia) [18] = assay: Test A preemergence, kochia; conditions: 0 to 100 scale
Procedure, shortened: as §1

CC(Nc1ncc(C#N)c(N)n1)c1cc2ccccc2o1 (racemic) [Compound 19]
90: Plant response rating, Pigweed ([14]; 500 g ai/ha)
30: Plant response rating, Pigweed ([14]; 125 g ai/ha) | Plant response rating, Kochia (kochia (Kochia scoparia) [17]; 500 g ai/ha)
10: Plant response rating, Corn (corn (Zea mays); 500 g ai/ha)
70: Plant response rating, Galium ([3]; 500 g ai/ha)
50: Plant response rating, Pigweed ([5]; 500 g ai/ha) | Plant response rating, Ragweed ([6]; 500 g ai/ha)
0: Plant response rating, Foxtail, Giant ([1]; 125 g ai/ha) | Plant response rating, Foxtail, Giant ([1]; 500 g ai/ha) | Plant response rating, Foxtail, Giant ([2]; 125 g ai/ha) | Plant response rating, Corn (corn (Zea mays); 125 g ai/ha) | Plant response rating, Galium ([3]; 125 g ai/ha) | Plant response rating, Barnyardgrass (0 to 100 scale, 0 is no effect, 100 is complete control) [4] | Plant response rating, Pigweed ([5]; 125 g ai/ha) | Plant response rating, Ragweed ([6]; 125 g ai/ha) | Plant response rating, Barnyardgrass ([7]; 125 g ai/ha) | Plant response rating, Barnyardgrass ([7]; 500 g ai/ha) | Plant response rating, Ryegrass, Italian ([8]; 125 g ai/ha) | Plant response rating, Rice (0 to 100 scale, 0 is no effect, 100 is complete control) (rice (Oryza sativa)) | Plant response rating, Ragweed ([9]; 125 g ai/ha) | Plant response rating, Ragweed ([9]; 500 g ai/ha) | Plant response rating, Barnyardgrass ([10]; 125 g ai/ha) | Plant response rating, Barnyardgrass ([10]; 500 g ai/ha) | Plant response rating, Ducksalad (0 to 100 scale, 0 is no effect, 100 is complete control) [11] | Plant response rating, Sedge, Umbrella (0 to 100 scale, 0 is no effect, 100 is complete control) [12] | Plant response rating, Ryegrass, Italian ([13]; 125 g ai/ha) | Plant response rating, Wheat ([15]; 125 g ai/ha) | Plant response rating, Wheat ([15]; 500 g ai/ha) | Plant response rating, Kochia (kochia (Kochia scoparia) [17]; 125 g ai/ha) | Plant response rating, Kochia (kochia (Kochia scoparia) [18]; 125 g ai/ha)
20: Plant response rating, Foxtail, Giant ([2]; 500 g ai/ha) | Plant response rating, Ryegrass, Italian ([8]; 500 g ai/ha) | Plant response rating, Blackgrass ([16]; 125 g ai/ha) | Plant response rating, Kochia (kochia (Kochia scoparia) [18]; 500 g ai/ha)
60: Plant response rating, Ryegrass, Italian ([13]; 500 g ai/ha) | Plant response rating, Blackgrass ([16]; 500 g ai/ha)

CCC(Nc1ncc(C#N)c(N)n1)c1cc2ccccc2o1 (racemic) [Compound 20]
0: Plant response rating, Foxtail, Giant ([1]; 125 g ai/ha) | Plant response rating, Foxtail, Giant ([2]; 125 g ai/ha) | Plant response rating, Corn (corn (Zea mays); 125 g ai/ha) | Plant response rating, Barnyardgrass (0 to 100 scale, 0 is no effect, 100 is complete control) [4] | Plant response rating, Ryegrass, Italian ([8]; 125 g ai/ha) | Plant response rating, Ryegrass, Italian ([8]; 500 g ai/ha) | Plant response rating, Rice (0 to 100 scale, 0 is no effect, 100 is complete control) (rice (Oryza sativa)) | Plant response rating, Barnyardgrass ([10]; 125 g ai/ha) | Plant response rating, Ducksalad (0 to 100 scale, 0 is no effect, 100 is complete control) [11] | Plant response rating, Sedge, Umbrella (0 to 100 scale, 0 is no effect, 100 is complete control) [12] | Plant response rating, Wheat ([15]; 125 g ai/ha) | Plant response rating, Kochia (kochia (Kochia scoparia) [18]; 125 g ai/ha)
40: Plant response rating, Ragweed ([6]; 125 g ai/ha) | Plant response rating, Barnyardgrass ([7]; 125 g ai/ha) | Plant response rating, Barnyardgrass ([10]; 500 g ai/ha)
80: Plant response rating, Foxtail, Giant ([2]; 500 g ai/ha) | Plant response rating, Galium ([3]; 500 g ai/ha)
50: Plant response rating, Barnyardgrass ([7]; 500 g ai/ha) | Plant response rating, Pigweed ([14]; 125 g ai/ha) | Plant response rating, Kochia (kochia (Kochia scoparia) [17]; 125 g ai/ha)
100: Plant response rating, Pigweed ([14]; 500 g ai/ha) | Plant response rating, Blackgrass ([16]; 500 g ai/ha)
10: Plant response rating, Foxtail, Giant ([1]; 500 g ai/ha) | Plant response rating, Wheat ([15]; 500 g ai/ha)
30: Plant response rating, Galium ([3]; 125 g ai/ha) | Plant response rating, Ryegrass, Italian ([13]; 125 g ai/ha) | Plant response rating, Blackgrass ([16]; 125 g ai/ha) | Plant response rating, Kochia (kochia (Kochia scoparia) [18]; 500 g ai/ha)
70: Plant response rating, Ragweed ([9]; 500 g ai/ha)
90: Plant response rating, Pigweed ([5]; 500 g ai/ha) | Plant response rating, Ryegrass, Italian ([13]; 500 g ai/ha) | Plant response rating, Kochia (kochia (Kochia scoparia) [17]; 500 g ai/ha)
20: Plant response rating, Corn (corn (Zea mays); 500 g ai/ha) | Plant response rating, Ragweed ([9]; 125 g ai/ha)
60: Plant response rating, Pigweed ([5]; 125 g ai/ha) | Plant response rating, Ragweed ([6]; 500 g ai/ha)

CCC(Nc1ncc(C(F)(F)F)c(N)n1)c1cc2ccccc2o1 (racemic) [Compound 28]
30: Plant response rating, Barnyardgrass ([10]; 500 g ai/ha) | Plant response rating, Kochia (kochia (Kochia scoparia) [17]; 125 g ai/ha)
70: Plant response rating, Galium ([3]; 125 g ai/ha)
10: Plant response rating, Foxtail, Giant ([1]; 125 g ai/ha) | Plant response rating, Wheat ([15]; 500 g ai/ha) | Plant response rating, Blackgrass ([16]; 125 g ai/ha) | Plant response rating, Kochia (kochia (Kochia scoparia) [18]; 125 g ai/ha)
20: Plant response rating, Ragweed ([6]; 125 g ai/ha) | Plant response rating, Rice (0 to 100 scale, 0 is no effect, 100 is complete control) (rice (Oryza sativa)) | Plant response rating, Ragweed ([9]; 125 g ai/ha) | Plant response rating, Ryegrass, Italian ([13]; 125 g ai/ha)
75: Plant response rating, Ducksalad (0 to 100 scale, 0 is no effect, 100 is complete control) [11]
80: Plant response rating, Corn (corn (Zea mays); 500 g ai/ha) | Plant response rating, Blackgrass ([16]; 500 g ai/ha) | Plant response rating, Kochia (kochia (Kochia scoparia) [17]; 500 g ai/ha)
0: Plant response rating, Corn (corn (Zea mays); 125 g ai/ha) | Plant response rating, Barnyardgrass (0 to 100 scale, 0 is no effect, 100 is complete control) [4] | Plant response rating, Ryegrass, Italian ([8]; 125 g ai/ha) | Plant response rating, Ryegrass, Italian ([8]; 500 g ai/ha) | Plant response rating, Barnyardgrass ([10]; 125 g ai/ha) | Plant response rating, Wheat ([15]; 125 g ai/ha)
60: Plant response rating, Foxtail, Giant ([2]; 125 g ai/ha) | Plant response rating, Ragweed ([9]; 500 g ai/ha) | Plant response rating, Ryegrass, Italian ([13]; 500 g ai/ha)
40: Plant response rating, Foxtail, Giant ([1]; 500 g ai/ha)
50: Plant response rating, Barnyardgrass ([7]; 125 g ai/ha)
90: Plant response rating, Foxtail, Giant ([2]; 500 g ai/ha) | Plant response rating, Galium ([3]; 500 g ai/ha) | Plant response rating, Pigweed ([5]; 125 g ai/ha) | Plant response rating, Barnyardgrass ([7]; 500 g ai/ha) | Plant response rating, Pigweed ([14]; 125 g ai/ha) | Plant response rating, Kochia (kochia (Kochia scoparia) [18]; 500 g ai/ha)
100: Plant response rating, Pigweed ([5]; 500 g ai/ha) | Plant response rating, Ragweed ([6]; 500 g ai/ha) | Plant response rating, Sedge, Umbrella (0 to 100 scale, 0 is no effect, 100 is complete control) [12] | Plant response rating, Pigweed ([14]; 500 g ai/ha)
